Consider one compound from US10947323B2, “Capped cyclodextrin-hydrophobic moiety conjugate, cyclodextrin supramolecular polymer, and cyclodextrin-siRNA complex and method of synthesis thereof” (SORBONNE UNIVERSITE, priority 2016, dated 2021).

Series [1] deals with firefly luciferase GL3 expression in HEK293 cells. As to the kind of experiment: KnockDown test of the luciferase GL3 gene (siRNA transfection, One-Glo luminescence). Format: cell-based, human. The settings on record: siRNA complexes, N/P ratio of 1190, 24 hours, untransfected cells = 100% expression. How it is done: The cell line to be transfected is a cell line of human embryonic kidney 293 cells (HEK293). This cell line is cultivated with a DMEM medium to which SVF (10%) is added.
The cultures are made in an incubator at 37° C., 5% of CO2. The cell line HEK293 express constitutively the firefly luciferase GL3.
The HEK293 cells are deposited in a 96 wells plaque 1·10^3 cell/wells.
The siRNA which is used is the luciferase GL3 siRNA.
Transfection of cell line HEK293 with the siRNA directed against the firefly luciferase GL3 with as vector of transfection the […] obtained in example 1 or Lipofectamine 2000 (used as a positive reference of transfection) has been carried out.
The efficacy of transfection on the cells has been evaluated by a method of luminescence.
One day before the transfection, the HEK293 cells are deposited in a 96 wells plaque: 1·10^3 cell/wells treated in 200 μL of DMEM, SVF 10%, without antibiotics, in order that the cells reach a 30-50% of confluence the day after.
The day of the transfection, the 200 μL/wells of medium are withdrawn. […]
This latter is incubated at 37° C. during 24 hours until the analysis by luminescence of the KD of the gene of the luciferase (Kit One-Glo luciferase assay (Promega)).
For this aim, 100 μL/wells of reactants are added to the cells before the plaque be analyzed by luminescence.

For another series, the system named is HEK293 cells. As to the kind of experiment: Toxicity test (cell viability, ATP activity, CellTiter Glo 2.0). Type of series: cell-based, human. The settings on record: over the range of N/P ratios, 24 hours. How it is done: In order to evaluate the toxicity of compound 11 of example 1 on HEK293 cells, the kit CellTiter Glo 2.0 (Promega) has been used.
One day before the transfection, the cells HEK293 are deposited in a 96-wells plaque: 1·10^3 cell/wells and then treated with 200 μL of DMEM, SVF 10%, without antibiotics, in order that the cells reach a 30-50% of confluence the day after.
The day of the transfection, the cells are incubated with the complex siRNA-cyclodextrin conjugate obtained in example 1 and Lipofectamine 2000.siRNA at 37° C. during 24 hours until analysis of the cells viability (ATP activity) using a kit CellTiter Glo 2.0.
For this aim 100 μL/wells of CellTiter Glo 2.0. reactant are added to the cells before the plaque be analyzed by luminescence.
A general note: In ATP-based viability assays light output follows the ATP content of the culture.

In the next series the test system is siRNA. As to the kind of experiment: Agarose gel electrophoresis of siRNA complex formation at increasing N/P ratios. Format: binding. The settings on record: at low N/P ratios; 100 V, 40 min. On the procedure:
In order to characterize the formation of complexes between the siRNA and the compound 11 of the invention obtained in example 1, an electrophorese technique on agarose gel has been used.
The molecule of siRNA and of compound of example 1 have been migrated according to N/P previously chosen.
A solution of 17 μL of siRNA-compound of example 1 is prepared in sterile water and incubated during 20 minutes at ambient temperature.
Then, this solution is deposited on the gel with 3 μL of bromophenol blue before launching the migration: 100 V, 40 min.
Third, thanks to the experiment with agarose electrophoresis gel, it has been shown that capped cyclodextrine-adamantane conjugate are able to interact and to complex siRNA. Indeed, capped cyclodextrine-adamantane complex formation was evaluated at increasing N/P ratios using agarose gel electrophoresis. (FIG. 3)
N/P ratio corresponds to the amount of protonated aminated residue of the cationic species divided by the amount of phosphate residues coming from the nucleic acids.^14 This ratio enables to compare the efficiency of a cationic compound to be complexed with nucleic acids. ^14 Pharmaceutics. 2011, 3, 125-140

As for `OCC1O[C@@H]2O[C@@H]3C(CO)O[C@H](O[C@@H]4C5CN(CCC67CC8CC(CC(C8)C6)C7)CCCCNCC6O[C@H](O[C@@H]7C(CO)O[C@H](O[C@H]1C(O)C2O)C(O)C7O)C(O)C(O)[C@@H]6O[C@H]1OC(CO)[C@@H](O[C@H]2OC(CO)[C@@H](O[C@@H](O5)C(O)C4O)C(O)C2O)C(O)C1O)C(O)C3O` (stereo partly drawn) [compose 11], the “knockdown of GL3 luciferase expression” value in series [1] was no more than 50%. In addition, the “cytotoxicity of transfection with siRNA complexes” value in the series with HEK293 cells is reported as “no cytotoxicity”. In addition, the “binding (complexation) of siRNA, no migration of siRNA in gel” value in the series on siRNA was “complete binding of siRNA”.
